According to ChEMBL document CHEMBL5512695, “Discovery of N-Substituted Acetamide Derivatives as Promising P2Y14R Antagonists Using Molecular Hybridization Based on Crystallographic Overlay” (J Med Chem, 2024):
Each block holds one molecule with its values, some of them ahead of it.

What was measured:
[1] = biological target: T1, P2Y purinoceptor 14 (Homo sapiens) (UniProt Q15391); conditions: time 30.0 min
T1 sequence (whole entry): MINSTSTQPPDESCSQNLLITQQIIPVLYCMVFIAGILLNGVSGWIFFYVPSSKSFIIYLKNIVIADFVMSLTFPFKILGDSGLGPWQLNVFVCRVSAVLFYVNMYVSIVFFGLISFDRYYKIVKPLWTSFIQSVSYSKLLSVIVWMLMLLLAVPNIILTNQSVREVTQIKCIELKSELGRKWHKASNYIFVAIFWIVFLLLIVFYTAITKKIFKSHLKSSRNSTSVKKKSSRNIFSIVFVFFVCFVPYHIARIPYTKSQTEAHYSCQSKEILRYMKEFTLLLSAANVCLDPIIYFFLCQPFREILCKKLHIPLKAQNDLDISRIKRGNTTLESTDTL

P2Y purinoceptor 6 = P2Y purinoceptor 6 (Homo sapiens, UniProt Q15077); assay: Inhibition of human P2Y6R stably expressed in UDP-stimulated HEK293 cells incubated for 0.5 hrs by IP3 production assay; format: functional, cell-based
P2Y purinoceptor 6, sequence (Q15077 whole entry): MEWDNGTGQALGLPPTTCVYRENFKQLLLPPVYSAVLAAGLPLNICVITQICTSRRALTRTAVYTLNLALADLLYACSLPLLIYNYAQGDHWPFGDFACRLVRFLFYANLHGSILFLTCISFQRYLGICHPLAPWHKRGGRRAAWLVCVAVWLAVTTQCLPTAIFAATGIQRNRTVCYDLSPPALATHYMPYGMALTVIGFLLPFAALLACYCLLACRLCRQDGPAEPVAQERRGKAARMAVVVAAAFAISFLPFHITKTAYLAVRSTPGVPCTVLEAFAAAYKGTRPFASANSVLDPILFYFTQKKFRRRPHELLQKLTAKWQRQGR

P2Y purinoceptor 12 = P2Y purinoceptor 12 (Homo sapiens, UniProt Q9H244); assay: Inhibition of human P2Y12R stably expressed in 2-MeSADP -stimulated HEK293 cells incubated for 0.5 hrs by cAMP production assay; format: functional, cell-based
P2Y purinoceptor 12, sequence (Q9H244 whole entry): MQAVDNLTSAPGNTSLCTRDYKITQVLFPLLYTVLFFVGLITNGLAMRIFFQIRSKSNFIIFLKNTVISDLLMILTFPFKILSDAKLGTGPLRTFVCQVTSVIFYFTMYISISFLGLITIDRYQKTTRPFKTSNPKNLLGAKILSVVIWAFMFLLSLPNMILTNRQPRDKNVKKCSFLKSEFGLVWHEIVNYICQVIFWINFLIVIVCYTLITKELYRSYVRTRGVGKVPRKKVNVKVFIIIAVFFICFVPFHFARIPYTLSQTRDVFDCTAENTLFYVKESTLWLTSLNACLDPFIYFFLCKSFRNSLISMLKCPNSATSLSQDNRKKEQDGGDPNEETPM

HUVEC = assay: Cytotoxicity against MSU/LPS-stimulated HUVEC cells assessed as decrease in cell viability at 256 uM incubated for 24 hrs by SRB assay; format: toxicity, cell-based; conditions: human
HEK-293T = assay: Cytotoxicity against MSU/LPS-stimulated HEK293T cells assessed as decrease in cell viability at 256 uM incubated for 24 hrs by SRB assay; format: toxicity, cell-based; conditions: human
Cytochrome P450 1A2 = biological target: T2, Cytochrome P450 1A2 (Homo sapiens, UniProt P05177); assay: Inhibition of CYP1A2 in human liver microsomes using phenacetin as substrate preincubated for 10 mins followed by substrate addition measured after 30 mins by LC/MS analysis; format: ADME, Microsome
T2 sequence (P05177 whole entry): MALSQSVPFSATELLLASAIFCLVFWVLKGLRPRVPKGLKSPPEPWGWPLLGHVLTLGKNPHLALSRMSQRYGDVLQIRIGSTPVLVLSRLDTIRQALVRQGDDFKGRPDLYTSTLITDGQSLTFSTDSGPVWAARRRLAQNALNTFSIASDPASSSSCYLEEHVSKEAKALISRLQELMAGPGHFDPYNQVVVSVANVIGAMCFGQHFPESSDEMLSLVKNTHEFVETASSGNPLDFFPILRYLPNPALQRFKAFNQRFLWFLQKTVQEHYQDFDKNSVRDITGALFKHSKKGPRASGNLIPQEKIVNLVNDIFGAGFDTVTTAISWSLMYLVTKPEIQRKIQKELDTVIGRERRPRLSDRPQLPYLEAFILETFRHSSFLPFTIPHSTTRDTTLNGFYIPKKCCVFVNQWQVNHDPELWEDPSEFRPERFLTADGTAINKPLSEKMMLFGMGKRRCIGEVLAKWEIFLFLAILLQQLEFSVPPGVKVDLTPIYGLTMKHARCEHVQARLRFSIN

Cytochrome P450 2C9 = Cytochrome P450 2C9 (Homo sapiens, UniProt P11712); assay: Inhibition of CYP2C9 in human liver microsomes using diclofenac as substrate preincubated for 10 mins followed by substrate addition measured after 30 mins by LC/MS analysis; format: ADME, Microsome
Cytochrome P450 2C9, sequence (P11712 whole entry): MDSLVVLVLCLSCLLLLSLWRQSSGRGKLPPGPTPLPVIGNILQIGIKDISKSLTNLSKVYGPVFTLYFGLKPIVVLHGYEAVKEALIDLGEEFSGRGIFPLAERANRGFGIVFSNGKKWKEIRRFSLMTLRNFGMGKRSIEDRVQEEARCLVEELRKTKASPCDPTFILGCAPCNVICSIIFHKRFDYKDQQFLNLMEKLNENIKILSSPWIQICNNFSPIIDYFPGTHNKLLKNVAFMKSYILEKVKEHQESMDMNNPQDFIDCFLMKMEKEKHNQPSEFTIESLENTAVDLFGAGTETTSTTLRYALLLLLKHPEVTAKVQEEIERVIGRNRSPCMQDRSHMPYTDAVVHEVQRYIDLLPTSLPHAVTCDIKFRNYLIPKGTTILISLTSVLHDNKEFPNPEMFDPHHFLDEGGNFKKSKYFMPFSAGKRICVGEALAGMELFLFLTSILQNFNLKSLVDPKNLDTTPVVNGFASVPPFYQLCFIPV

Cytochrome P450 2C19 = Cytochrome P450 2C19 (Homo sapiens, UniProt P33261); assay: Inhibition of CYP2C19 in human liver microsomes using S-mephenytoin as substrate preincubated for 10 mins followed by substrate addition measured after 30 mins by LC/MS analysis; format: ADME, Microsome
Cytochrome P450 2C19, sequence (P33261 whole entry): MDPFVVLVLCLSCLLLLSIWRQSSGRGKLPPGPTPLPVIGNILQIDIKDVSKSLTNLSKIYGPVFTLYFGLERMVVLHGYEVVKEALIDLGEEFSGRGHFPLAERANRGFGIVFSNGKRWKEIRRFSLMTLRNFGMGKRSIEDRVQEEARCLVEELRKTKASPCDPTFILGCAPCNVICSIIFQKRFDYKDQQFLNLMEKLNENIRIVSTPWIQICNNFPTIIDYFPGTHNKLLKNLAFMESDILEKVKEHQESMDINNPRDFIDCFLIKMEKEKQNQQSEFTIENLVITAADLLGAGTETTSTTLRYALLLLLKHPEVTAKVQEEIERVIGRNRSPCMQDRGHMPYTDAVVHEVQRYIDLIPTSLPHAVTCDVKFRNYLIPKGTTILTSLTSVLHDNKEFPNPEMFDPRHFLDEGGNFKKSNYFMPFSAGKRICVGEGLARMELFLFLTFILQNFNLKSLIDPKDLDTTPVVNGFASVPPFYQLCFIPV

Cytochrome P450 2D6 = Cytochrome P450 2D6 (Homo sapiens, UniProt P10635); assay: Inhibition of CYP2D6 in human liver microsomes using dextromethorphan as substrate preincubated for 10 mins followed by substrate addition measured after 30 mins by LC/MS analysis; format: ADME, Microsome
Cytochrome P450 2D6, sequence (P10635 whole entry): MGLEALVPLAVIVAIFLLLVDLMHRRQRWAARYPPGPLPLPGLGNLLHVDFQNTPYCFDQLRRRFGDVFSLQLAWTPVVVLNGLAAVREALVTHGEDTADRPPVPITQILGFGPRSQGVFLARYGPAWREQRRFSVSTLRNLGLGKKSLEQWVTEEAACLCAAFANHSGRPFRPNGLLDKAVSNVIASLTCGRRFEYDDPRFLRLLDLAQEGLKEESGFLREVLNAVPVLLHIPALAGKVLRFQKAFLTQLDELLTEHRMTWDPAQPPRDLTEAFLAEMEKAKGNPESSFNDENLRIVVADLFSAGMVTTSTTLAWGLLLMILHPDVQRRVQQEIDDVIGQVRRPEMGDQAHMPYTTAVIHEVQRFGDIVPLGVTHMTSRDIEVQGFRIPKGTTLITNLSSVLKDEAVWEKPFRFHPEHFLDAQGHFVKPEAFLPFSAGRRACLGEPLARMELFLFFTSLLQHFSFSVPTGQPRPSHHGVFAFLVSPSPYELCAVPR

Cytochrome P450 3A4 = Cytochrome P450 3A4 (Homo sapiens, UniProt P08684); assay: Inhibition of CYP3A4 in human liver microsomes using midazolam as substrate preincubated for 10 mins followed by substrate addition measured after 30 mins by LC/MS analysis; format: ADME, Microsome
Cytochrome P450 3A4, sequence (P08684 whole entry): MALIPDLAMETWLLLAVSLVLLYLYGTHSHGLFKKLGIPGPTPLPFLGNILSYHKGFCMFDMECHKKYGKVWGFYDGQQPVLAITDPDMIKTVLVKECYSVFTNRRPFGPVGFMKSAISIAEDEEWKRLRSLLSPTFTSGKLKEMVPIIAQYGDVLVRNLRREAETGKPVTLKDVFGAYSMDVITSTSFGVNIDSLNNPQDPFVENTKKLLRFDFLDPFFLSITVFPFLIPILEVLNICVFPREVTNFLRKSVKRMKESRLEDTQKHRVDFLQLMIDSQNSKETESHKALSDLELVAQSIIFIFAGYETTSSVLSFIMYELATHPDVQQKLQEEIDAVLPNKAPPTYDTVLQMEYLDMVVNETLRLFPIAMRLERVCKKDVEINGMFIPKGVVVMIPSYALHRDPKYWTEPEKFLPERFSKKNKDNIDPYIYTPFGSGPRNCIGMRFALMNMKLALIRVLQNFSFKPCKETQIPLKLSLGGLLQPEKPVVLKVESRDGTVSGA

[2] = biological target: Voltage-gated inwardly rectifying potassium channel KCNH2 (Homo sapiens, UniProt Q12809); assay: Inhibition of hERG expressed in HEK293 by whole cell Q-patch analysis; format: toxicity, cell-based
Voltage-gated inwardly rectifying potassium channel KCNH2, sequence (Q12809 whole entry): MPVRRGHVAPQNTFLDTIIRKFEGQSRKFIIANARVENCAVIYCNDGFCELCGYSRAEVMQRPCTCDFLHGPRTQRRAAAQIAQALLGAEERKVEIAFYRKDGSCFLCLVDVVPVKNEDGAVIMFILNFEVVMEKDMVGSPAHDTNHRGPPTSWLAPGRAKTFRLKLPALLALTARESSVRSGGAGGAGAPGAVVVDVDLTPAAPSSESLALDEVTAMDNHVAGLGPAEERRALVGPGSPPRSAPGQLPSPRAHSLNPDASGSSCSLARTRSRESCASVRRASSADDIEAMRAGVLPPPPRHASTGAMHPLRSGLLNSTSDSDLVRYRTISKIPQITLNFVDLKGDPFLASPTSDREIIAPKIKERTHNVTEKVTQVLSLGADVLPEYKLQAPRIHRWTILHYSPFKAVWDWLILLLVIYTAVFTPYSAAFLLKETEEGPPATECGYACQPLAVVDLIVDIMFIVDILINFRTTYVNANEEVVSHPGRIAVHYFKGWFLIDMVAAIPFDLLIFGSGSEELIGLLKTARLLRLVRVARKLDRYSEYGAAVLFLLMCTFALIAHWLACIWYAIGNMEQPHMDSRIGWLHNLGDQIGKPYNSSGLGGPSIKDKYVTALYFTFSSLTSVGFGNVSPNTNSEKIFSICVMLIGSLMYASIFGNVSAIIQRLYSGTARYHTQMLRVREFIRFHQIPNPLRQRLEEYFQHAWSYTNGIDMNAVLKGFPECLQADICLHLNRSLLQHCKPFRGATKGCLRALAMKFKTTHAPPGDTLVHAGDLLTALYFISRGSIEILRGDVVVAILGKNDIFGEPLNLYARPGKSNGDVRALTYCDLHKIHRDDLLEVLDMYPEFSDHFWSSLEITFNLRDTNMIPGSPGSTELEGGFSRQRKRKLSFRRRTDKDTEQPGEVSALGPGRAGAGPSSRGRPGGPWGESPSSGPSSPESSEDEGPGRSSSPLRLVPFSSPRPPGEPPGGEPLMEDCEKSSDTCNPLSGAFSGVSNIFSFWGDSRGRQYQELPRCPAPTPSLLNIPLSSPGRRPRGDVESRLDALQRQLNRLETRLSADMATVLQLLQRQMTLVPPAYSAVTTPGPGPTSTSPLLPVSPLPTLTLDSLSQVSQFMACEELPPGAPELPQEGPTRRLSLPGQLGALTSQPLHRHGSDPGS

[3] = Stability in SIF assessed as half life; format: ADME
[4] = Stability in SGF assessed as half life; format: ADME
[5] = Stability in human liver microsomes assessed as half life measured for 45 mins by LC-MS/MS analysis; format: ADME, Microsome
[6] = Cmax in SD […] at 10 mg/kg, iv measured for 24 hrs; format: ADME, organism-based; conditions: in vivo
[7] = Half life in SD […] at 10 mg/kg, iv measured for 24 hrs; format: ADME, organism-based; conditions: in vivo
[8] = Tmax in SD […] at 10 mg/kg, iv measured for 24 hrs; format: ADME, organism-based; conditions: in vivo
[9] = AUC (0 to 24 hrs) in SD […] at 10 mg/kg, iv; format: ADME, organism-based; conditions: in vivo
[10] = Clearance in SD […] at 10 mg/kg, iv measured for 24 hrs; format: ADME, organism-based; conditions: in vivo
[11] = Cmax in SD […] at 20 mg/kg, po measured for 24 hrs; format: ADME, organism-based; conditions: in vivo
[12] = Half life in SD […] at 20 mg/kg, po measured for 24 hrs; format: ADME, organism-based; conditions: in vivo
[13] = Tmax in SD […] at 20 mg/kg, po measured for 24 hrs; format: ADME, organism-based; conditions: in vivo
[14] = AUC (0 to 24 hrs) in SD […] at 20 mg/kg, po; format: ADME, organism-based; conditions: in vivo
[15] = Clearance in SD […] at 20 mg/kg, po measured for 24 hrs; format: ADME, organism-based; conditions: in vivo
[16] = Oral bioavailability in SD […] at 20 mg/kg measured for 24 hrs; format: ADME, organism-based; conditions: in vivo
P2Y purinoceptor 14 = biological target: T3, P2Y purinoceptor 14 (Homo sapiens, UniProt Q15391); assay: Antagonist activity at human P2Y14R stably expressed in HEK293 cells assessed as inhibition of forskolin-[…] cAMP production incubated for 30 mins by cAMP-Glo assay; format: functional, cell-based
T3 sequence (Q15391 whole entry): T1 sequence (whole entry)

[17] = HEK293, filed as antagonist, dose 100.0 nM

inhibition ([1]; HEK293, dose 100.0 nM): 17.6%
SMILES: O=Cc1ccc(OCC(=O)Nc2ccc3cccnc3c2)cc1

inhibition ([1]; HEK293, dose 100.0 nM): 38.3%
SMILES: O=C(COc1ccc(C(F)(F)F)cc1)Nc1ccc2cccnc2c1

inhibition [1, 17]: 48.3%
SMILES: Cc1ccc(OCC(=O)Nc2ccc3cc[nH]c3c2)cc1

inhibition ([1]; HEK293, dose 100.0 nM): 32%
SMILES: Cc1ccc(OCC(=O)Nc2ccc3ncoc3c2)cc1

IC50 (P2Y purinoceptor 6): 89.7 µM
IC50 (P2Y purinoceptor 12): > 100 µM
IC50 (Cytochrome P450 1A2): > 50 µM
IC50 (Cytochrome P450 2C9): > 50 µM
IC50 (Cytochrome P450 2C19): > 50 µM
IC50 (Cytochrome P450 2D6): > 50 µM
IC50 (Cytochrome P450 3A4): 19.6 µM
half-life [3]: > 5 h
half-life [4]: > 50 h
half-life [5]: 3.27 h
Cmax [6]: 1530 ng/mL
half-life [7]: 7.6 h
Tmax [8]: 0.3 h
AUC [9]: 1765 µg/L/h
clearance [10]: 3.5 mL/min/kg
Cmax [11]: 2900 ng/mL
half-life [12]: 12.6 h
Tmax [13]: 0.533 h
AUC [14]: 2845 µg/L/h
CL/F [15]: 14.8 mL/min/kg
bioavailability [16]: 75%
SMILES: O=C(COc1ccc(Br)cc1)Nc1ccc2nc[nH]c2c1
Activity (HUVEC): Non-Toxic
Activity (HEK-293T): Non-Toxic
IC50 [2]: > 50 µM

inhibition ([1]; HEK293, dose 100.0 nM): 12.1%
SMILES: O=C(COc1ccc(Cl)cc1)Nc1ccc2cccnc2c1

inhibition ([1]; HEK293, dose 100.0 nM): 16.3%
SMILES: O=C(COc1ccc(CO)cc1)Nc1ccc2cccnc2c1

inhibition ([1]; HEK293, dose 100.0 nM): 15.2%
SMILES: O=C(COc1ccc(Br)cc1)Nc1ccc2cccnc2c1

Continued, molecule first:

SMILES: Cc1ccc(OCC(=O)Nc2ccc3cn[nH]c3c2)cc1
inhibition ([1]; HEK293, dose 100.0 nM): 11.3%

SMILES: Cc1ccc(OCC(=O)Nc2ccc3sccc3c2)cc1
inhibition [1, 17]: 41.3%

SMILES: Cc1ccc(OCC(=O)Nc2ccc3ncsc3c2)cc1
inhibition ([1]; HEK293, dose 100.0 nM): 17.9%

SMILES: COc1ccc(OCC(=O)Nc2ccc3nc[nH]c3c2)cc1
inhibition ([1]; HEK293, dose 100.0 nM): 10.2%

SMILES: CC(C)c1ccc(OCC(=O)Nc2ccc3nc[nH]c3c2)cc1
inhibition ([1]; HEK293, dose 100.0 nM): 21.8%

SMILES: O=Cc1ccc(OCC(=O)Nc2ccc3nc[nH]c3c2)cc1
IC50 (P2Y purinoceptor 14): 0.0013 µM
inhibition [1, 17]: 95.2%
